Like-named read-outs stand apart in the source and are kept apart here.
Assays:
[1] = target: T1, GST P1-1 (Homo sapiens, UniProt P09211); assay: Determination of IC50 for GST P1-1 enzyme (dose-response / reconfirmation assay); assay type: biochemical
T1 construct: purchased Sigma-Aldrich
Description: (§1) Each drug compound was added to the respective well at a volume of 80 nL of 10 mM stock solution in DMSO, yielding a final compound concentration of 10 μM and a final DMSO concentration of 0.1%. Each plate’s first and last two columns were used as negative (no compound added – 80 nL per well of DMSO) and positive (80 nL of EA added with a final concentration of 50 μM) controls, respectively. The Gyger Certus Flex dispenser was set up using a freshly prepared 1 mM of GSH and 20 nM of GST P1-1, pH 7.4, in one syringe and 8 mM CDNB solution in pure ethanol in the other syringe. Into each well 80 μL of GST-GSH solution was dispensed and incubated at 25°C for 20 minutes before the reaction was initiated by the addition of 4 μL of CDNB solution. The plates were incubated for 2 h in the dark at 25°C and then the absorbance was of each well recorded on a BioTek Synergy NEO HTS multimode plate reader (Agilent®) at a wavelength of 340 nm.
The IC50 of the GST P1-1 enzyme was determined for the 80 drug compounds with the highest score in the GST P1-1 screening assay. The assay conditions were used for the screening assay and each drug compound was tested at 8 different concentrations (μM) starting at 30 µM final assay concentration with a half-log dilution and 2 replicates per concentration.

[2] = test system: MDA-MB-231 cells; assay: MTT cytotoxicity assay, MDA-MB-231; assay type: cell-based, human; settings: MTT, 72 h incubation, read-out: IC50 (average ± standard deviation) MDA-MB-231
Description: (§2) L929, MCF-7, and MDA-MB-231 cell lines were cultured in DMEM GlutaMAX media containing 10% heat-inactivated FBS and 1% (v/v) penicillin-streptomycin at 37°C and CO2 (5%). Cytotoxicity was determined using a 3-(4,5-dimethyl 2-thiazolyl)-2,5-diphenyl-2H-tetrazolium bromide (MTT) assay. 100 μL aliquots and approximately 50’000 cells/well were added to each well of flat-bottomed 96-well plates and incubated for 24 h in a humidified chamber at 37°C under saturated air with a 5% CO2 atmosphere. Stock solutions of 10 mM drug compounds were prepared in DMSO and were sequentially diluted with the cell culture buffer to give a final DMSO concentration of 0.5%. The solutions were added to the 96-well plates in 100 μL aliquots and 100 μL of buffer was added as a control to give a final drug compound concentration range of 0 − 100 μM. The plates were incubated for a further 72 h under the same conditions as before. MTT (10 μL, 5 mg/mL in Dulbecco’s phosphate-buffered saline) was added to each well and the plates were incubated for a further 3 h under the same conditions as before. The culture medium was aspirated from each well and the purple formazan crystals, formed by the mitochondrial dehydrogenase activity of vital cells, were dissolved in 100 μL DMSO. The absorbance of the resulting solutions was measured at 570 and 630 nm using a SpectraMax M5e multimode microplate reader and SoftMax Pro software, version 6.2.2. As the absorbance is directly proportional to the number of surviving cells, the percentage of surviving cells was calculated from the absorbance of wells relative to the control. The reported IC50 values are based on the mean from four independent experiments, each comprising three replicates per concentration.

[3] = target: T1, GST P1-1; assay: High-throughput GST P1-1 inhibition assay (384-well screen, CDNB/GSH); assay type: biochemical; settings: compound 10 μM; score 0 = negative control (DMSO), 1 = positive control (EA 50 μM); average of duplicate
Description: as §1
The z’factor was calculated for each plate according to Zhang et al.. The Z-factor is a dimensionless, simple statistical characteristic for each HTS assay. This provides a valuable tool for the comparison and assessment of the quality of assays, and can be utilized in assay optimization and validation. For each plate, the concentration of product was normalized by assigning a score of 0 (0%) to the negative control (average of maximal concentration of product measured in the presence of enzyme without any inhibitor) and a score of 1 (100%) was assigned to the positive control (average minimal concentration of product measured in the presence of enzyme with the reference inhibitor, i.e., EA). The experiment was performed in duplicate and the score for each drug compound was calculated as an average ± standard deviation. […] An internal laboratory information management system (LIMS) was used for basic data processing, management, visualization, and statistical hit validation.

[4] = test system: MCF-7 cells; assay: MTT cytotoxicity assay, MCF-7; assay type: cell-based, human; settings: MTT, 72 h incubation, read-out: IC50 (average ± standard deviation) MCF-7
Description: as §2

[5] = test system: L929 cells; assay: MTT cytotoxicity assay, L929; assay type: cell-based, mouse; settings: MTT, 72 h incubation, read-out: IC50 (average ± standard deviation) L929
Description: as §2, with “Cytotoxicity” for “L929, MCF-7, and MDA-MB-231 cell lines were cultured in DMEM GlutaMAX media containing 10% heat-inactivated FBS and 1% (v/v) penicillin-streptomycin at 37°C and CO2 (5%). Cytotoxicity”, “Stock solutions of 10 mM drug compounds were prepared in DMSO and were sequentially diluted with the cell culture buffer to give a final DMSO concentration of 0.5%. The solutions were added to the 96-well plates in 100 μL aliquots and 100 μL of buffer was added as a control to give a final drug compound concentration range of 0 − 100 μM.” left out

[6] = Table 2, rounded values, read-out: IC50 GSTP1 enzymatic reaction
[7] = reconfirmation assay, Table S2, read-out: IC50 GSTP1

T1 sequence (P09211 2-210 limits assumed): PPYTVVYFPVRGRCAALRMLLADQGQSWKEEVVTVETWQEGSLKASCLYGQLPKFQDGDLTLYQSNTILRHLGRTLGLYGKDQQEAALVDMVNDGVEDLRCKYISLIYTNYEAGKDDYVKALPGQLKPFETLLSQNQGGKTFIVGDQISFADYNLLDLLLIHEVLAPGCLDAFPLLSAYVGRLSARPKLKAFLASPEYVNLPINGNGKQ

Structure (SMILES): O=C1NC(=O)/C(=C/c2ccc(-c3ccc(F)cc3O)o2)S1 [AS252424]
- IC50 [1, 6]: 0.6 µM
- Hill Slope (dose-response curve) ([1]; reconfirmation assay): 1.95
- IC50 [1, 7]: 0.61 µM
- IC50 [2]: 91 ± 3 µM
- Score [3]: 0.907
- IC50 [4]: 38 ± 2 µM
- IC50 [5]: 24 ± 2 µM

Structure (SMILES): CC(C)(C)C(=O)CN1C(=O)[C@H](NC(=O)Nc2cccc(C(=O)O)c2)CN(C2CCCCC2)c2ccccc21 [Nastorazepide]
- IC50 [1, 6]: 3.3 µM
- Hill Slope (dose-response curve) ([1]; reconfirmation assay): 10.6
- IC50 [2]: > 100 µM
- Score [3]: 0.958
- IC50 [4]: > 100 µM
- IC50 [5]: > 100 µM

Structure (SMILES): O=C(O)c1cc(N2N=C(C(F)(F)F)/C(=C/c3ccc(-c4ccccc4)o3)C2=O)ccc1Cl [en460]
- IC50 [1, 6]: 1.1 µM
- Hill Slope (dose-response curve) ([1]; reconfirmation assay): 1.4
- IC50 [2]: 19 ± 1 µM
- Score [3]: 0.837
- IC50 [4]: 10 ± 1 µM
- IC50 [5]: 18 ± 2 µM

Structure (SMILES): O=C1CC(=O)c2c(Cl)c(Cl)c(Cl)c(Cl)c21 [TCID]
- IC50 [1, 6]: 0.9 µM
- Hill Slope (dose-response curve) ([1]; reconfirmation assay): 1.16
- IC50 [2]: > 100 µM
- Score [3]: 1.094
- IC50 [4]: > 100 µM
- IC50 [5]: > 100 µM

Structure (SMILES): C[C@@H]1Cc2c([nH]c3ccccc23)[C@@H](c2c(F)cc(/C=C/C(=O)O)cc2F)N1CC(C)(C)F [AZD9496]
- IC50 [1, 6]: 2.1 µM
- Hill Slope (dose-response curve) ([1]; reconfirmation assay): 2.23
- IC50 [1, 7]: 2.05 µM
- IC50 ([2]; Homo sapiens, MDA-MB-231): 47 ± 5 µM
- Score [3]: 0.806
- IC50 ([4]; Homo sapiens, MCF7): 14 ± 1 µM
- IC50 ([5]; Mus musculus, L929): 36 ± 4 µM

Structure (SMILES): Oc1c(Cl)cc(Cl)c(Cl)c1Cc1c(O)c(Cl)cc(Cl)c1Cl [Hexachlorophene]
- IC50 [1, 6]: 0.4 µM
- Hill Slope (dose-response curve) ([1]; reconfirmation assay): 2.2
- IC50 [1, 7]: 0.42 µM
- IC50 ([2]; Homo sapiens, MDA-MB-231): 9 ± 1 µM
- Score [3]: 1.077
- IC50 ([4]; Homo sapiens, MCF7): 14 ± 1 µM
- IC50 ([5]; Mus musculus, L929): 11 ± 1 µM

Structure (SMILES): C=CC(=O)c1ccc2ccccc2c1 [ZM 449829]
- IC50 [1, 6]: 1.4 µM
- Hill Slope (dose-response curve) ([1]; reconfirmation assay): 1.3
- IC50 [2]: 10.3 ± 0.2 µM
- IC50 [4]: 6.8 ± 0.2 µM
- IC50 [5]: 8.1 ± 0.4 µM

Structure (SMILES): Cc1cc(=O)n(-c2ccccc2)[nH]1 [5-Methyl-2-phenyl-1,2-dihydropyrazol-3-one]
- IC50 [1, 6]: 0.8 µM
- Hill Slope (dose-response curve) ([1]; reconfirmation assay): 0.8
- IC50 [1, 7]: 0.83 µM
- IC50 ([2]; Homo sapiens, MDA-MB-231): > 100 µM
- IC50 ([4]; Homo sapiens, MCF7): > 100 µM
- IC50 ([5]; Mus musculus, L929): > 100 µM

Structure (SMILES): Cc1cc(O)c2c(=O)c3c(O)cc(O)c4c5c(O)cc(O)c6c(=O)c7c(O)cc(C)c8c1c2c(c34)c(c78)c65 [Hypericin]
- IC50 [1, 6]: 0.1 µM
- Hill Slope (dose-response curve) ([1]; reconfirmation assay): 11.6
- IC50 ([2]; Homo sapiens, MDA-MB-231): 26 ± 3 µM
- Score [3]: 0.774
- IC50 ([4]; Homo sapiens, MCF7): 8 ± 1 µM
- IC50 ([5]; Mus musculus, L929): 19 ± 1 µM

Structure (SMILES): CCCCCCCCCCCC1=C(O)C(=O)C=C(O)C1=O [Embelin]
- IC50 [1, 6]: 0.6 µM
- Hill Slope (dose-response curve) ([1]; reconfirmation assay): 1.46
- IC50 [1, 7]: 0.64 µM
- IC50 ([2]; Homo sapiens, MDA-MB-231): 12 ± 1 µM
- Score [3]: 0.935
- IC50 ([4]; Homo sapiens, MCF7): 11 ± 1 µM
- IC50 ([5]; Mus musculus, L929): 14 ± 1 µM

Structure (SMILES): Cl.O=C(O)Cc1cccc(OCCCN(Cc2cccc(C(F)(F)F)c2Cl)CC(c2ccccc2)c2ccccc2)c1 [GW3965 (hydrochloride)]
- IC50 [1, 6]: 0.4 µM
- Hill Slope (dose-response curve) ([1]; reconfirmation assay): 2.48
- IC50 [1, 7]: 0.43 µM
- IC50 [2]: 54 ± 1 µM
- Score [3]: 1.027
- IC50 [4]: 25 ± 1 µM
- IC50 [5]: 24 ± 2 µM

Structure (SMILES): O=C(O)[C@]1(Cc2cccc(Nc3nccs3)n2)CC[C@@H](Oc2cccc(Cl)c2F)CC1 [MK-5108]
- IC50 [1, 6]: 3.2 µM
- Hill Slope (dose-response curve) ([1]; reconfirmation assay): 13.6
- IC50 ([2]; Homo sapiens, MDA-MB-231): > 100 µM
- Score [3]: 0.933
- IC50 ([4]; Homo sapiens, MCF7): 3.4 ± 0.8 µM
- IC50 ([5]; Mus musculus, L929): 2.2 ± 0.5 µM

Structure (SMILES): C=C(CC)C(=O)c1ccc(OCC(=O)O)c(Cl)c1Cl [Ethacrynic acid, EA, Ethacrynic acid]
- IC50 ([2]; Homo sapiens, MDA-MB-231): 14 ± 1 µM
- IC50 ([4]; Homo sapiens, MCF7): 13 ± 1 µM
- IC50 ([5]; Mus musculus, L929): > 100 µM

Structure (SMILES): O=C(O)c1c(Sc2ccccc2)c2cc(Cl)ccc2n1Cc1ccc(Cl)cc1 [nTZDpa]
- IC50 [1, 6]: 0.95 µM
- Hill Slope (dose-response curve) ([1]; reconfirmation assay): 1.7
- IC50 [2]: 95 ± 4 µM
- Score [3]: 0.909
- IC50 [4]: 39 ± 2 µM
- IC50 [5]: 36 ± 3 µM

Structure (SMILES): CC(C)c1cc(C(C)C)c(CC(=O)NS(=O)(=O)Oc2c(C(C)C)cccc2C(C)C)c(C(C)C)c1 [Avasimibe]
- IC50 [1, 6]: 0.4 µM
- IC50 [1, 7]: 0.37 µM
- IC50 ([2]; Homo sapiens, MDA-MB-231): 16 ± 1 µM
- Score [3]: 0.835
- IC50 ([4]; Homo sapiens, MCF7): 12 ± 1 µM
- IC50 ([5]; Mus musculus, L929): 13 ± 1 µM

Structure (SMILES): N#Cc1c(-c2ccccc2)cc(-c2cc(Br)ccc2O)[nH]c1=O [TCS PIM-1 1]
- IC50 [1, 6]: 2.2 µM
- Hill Slope (dose-response curve) ([1]; reconfirmation assay): 2.5
- IC50 [1, 7]: 2.15 µM
- IC50 [2]: > 100 µM
- Score [3]: 0.813
- IC50 [4]: 74 ± 4 µM
- IC50 [5]: 36 ± 3 µM

Structure (SMILES): O=C(O)c1ccccc1Nc1ccc(CCc2ccc(Cl)c(Cl)c2)cc1 [PD-118057]
- IC50 [1, 6]: 0.3 µM
- Hill Slope (dose-response curve) ([1]; reconfirmation assay): 1.8
- IC50 [1, 7]: 0.33 µM
- IC50 [2]: > 100 µM
- Score [3]: 0.858
- IC50 [4]: 41 ± 4 µM
- IC50 [5]: > 100 µM
